The test deals with T1, human NPC1L1 (Homo sapiens, UniProt Q9UHC9).
T1 sequence (Q9UHC9 22-1359): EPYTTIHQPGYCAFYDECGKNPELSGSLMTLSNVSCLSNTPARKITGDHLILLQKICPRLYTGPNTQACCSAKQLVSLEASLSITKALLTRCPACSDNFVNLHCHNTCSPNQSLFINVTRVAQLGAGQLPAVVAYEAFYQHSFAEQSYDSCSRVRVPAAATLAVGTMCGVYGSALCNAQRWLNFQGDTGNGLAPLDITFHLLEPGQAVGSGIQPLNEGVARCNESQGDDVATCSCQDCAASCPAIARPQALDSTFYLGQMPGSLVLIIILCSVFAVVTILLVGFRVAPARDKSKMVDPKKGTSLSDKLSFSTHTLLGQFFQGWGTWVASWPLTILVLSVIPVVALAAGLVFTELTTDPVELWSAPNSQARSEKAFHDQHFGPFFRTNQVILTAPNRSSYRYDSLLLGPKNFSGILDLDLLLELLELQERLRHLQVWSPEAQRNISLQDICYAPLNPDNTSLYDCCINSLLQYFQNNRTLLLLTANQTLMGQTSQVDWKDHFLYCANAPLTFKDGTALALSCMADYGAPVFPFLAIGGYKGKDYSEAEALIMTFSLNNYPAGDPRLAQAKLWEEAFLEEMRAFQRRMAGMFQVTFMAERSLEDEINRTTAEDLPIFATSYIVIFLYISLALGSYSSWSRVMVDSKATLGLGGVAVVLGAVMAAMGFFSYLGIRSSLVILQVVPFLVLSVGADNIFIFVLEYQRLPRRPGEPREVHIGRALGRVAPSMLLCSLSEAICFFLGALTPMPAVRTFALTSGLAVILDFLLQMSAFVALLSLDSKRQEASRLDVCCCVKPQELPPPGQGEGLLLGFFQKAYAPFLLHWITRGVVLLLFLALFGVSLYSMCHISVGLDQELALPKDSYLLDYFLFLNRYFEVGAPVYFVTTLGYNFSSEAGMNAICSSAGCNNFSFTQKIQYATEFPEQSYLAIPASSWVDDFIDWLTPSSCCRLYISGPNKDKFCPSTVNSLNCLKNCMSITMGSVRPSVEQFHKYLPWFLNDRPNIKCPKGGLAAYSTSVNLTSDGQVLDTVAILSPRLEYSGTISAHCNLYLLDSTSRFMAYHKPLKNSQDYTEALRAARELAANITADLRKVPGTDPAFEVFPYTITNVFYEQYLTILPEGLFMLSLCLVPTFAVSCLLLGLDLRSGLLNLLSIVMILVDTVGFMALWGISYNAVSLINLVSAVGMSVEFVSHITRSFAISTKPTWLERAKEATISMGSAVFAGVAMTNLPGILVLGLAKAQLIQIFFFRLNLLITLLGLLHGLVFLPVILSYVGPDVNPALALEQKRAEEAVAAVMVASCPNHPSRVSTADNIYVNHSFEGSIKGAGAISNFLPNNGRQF
Nature of the test: 3H-cholesterol uptake inhibition in hNPC1L1/MDCKII cells. The class given is cell-based.

The structures appear in SMILES notation.

For the compound `O=C1[C@H](CC[C@H](O)c2ccc(F)cc2)[C@@H](c2ccc(O)cc2)N1c1ccc(F)cc1` [Eze, ezetimibe], the IC50 – broadly, the concentration at which inhibition is half-maximal – worked out at 3.86 µM. `O=C(O)[C@H]1O[C@@H](Oc2ccc([C@@H]3[C@@H](CC[C@H](O)c4ccc(F)cc4)C(=O)N3c3ccc(F)cc3)cc2)[C@H](O)[C@@H](O)[C@@H]1O` [Eze-Glu, ezetimibe-glucuronide]: the midpoint of inhibition, the IC50, lay at 0.682 µM.

(Values after PMC7304964 (Science Advances, 2020).)
